Converted amounts (≈) assume the structure as drawn. Structures can show the parent of a compound that is named as a salt. Where two headings read alike, the source gives them in different places.
What was measured:
[1] = tested on: Pseudomonas aeruginosa MGH-2; test: In vitro tube dilution test (MIC), Pseudomonas aeruginosa MGH-2; assay type: cell-based; conditions: 18-20 hours at 37° C.
Experimental: (§1) Nalidixic acid, the parent acid, and its 1,2-ethanediamine (1:1) salt were tested in vitro against ten screening organisms and they were also tested against the standard E. coli (Vogel) systemic infection in mice, the latter in vivo study being carried out using three different routes of administration: oral, subcutaneous and intravenous. The materials and methods used in the comparative antibacterial tests are given in the following paragraphs.
(§2) The parent nalidixic acid was solublized by adding 1.0 ml. of 1 N NaOH to the crystalline acid and water was added to a concentration of 1000 mcg./ml. for the in vitro study or saline to a concentration of 2.5 or 5.0 mg./ml. for the in vivo study. A stock solution of nalidixic acid 1,2-ethanediamine (1:1) salt was prepared from the 1:2 salt according to Example 5 above (refer to Solution 5B); in saline this solution has a concentration equivalent of the nalidixic acid of 47.6 mg./ml. for in vivo studies. A concentration equivalent of the acid of 1000 mcg./ml. for the in vitro studies was obtained by dilution of the stock solution. […]
(§3) The compounds were tested for antimicrobial activity by a single-row tube dilution method. […] Minimal inhibitory concentrations (lowest drug concentrations showing no visible growth, designated MIC) were read after eighteen-twenty hours incubation at 37° C. The molds were read after five days incubation at 25° C.

[2] = tested on: Klebsiella pneumoniae 39645; test: In vitro tube dilution test (MIC), Klebsiella pneumoniae 39645; assay type: cell-based; conditions: 18-20 hours at 37° C.
Experimental: as §1, §2, §3

Proteus mirabilis MGH-1 = test: In vitro tube dilution test (MIC), Proteus mirabilis MGH-1; assay type: cell-based
Experimental: as §1, §2, §3

[3] = tested on: Streptococcus pyogenes C203; test: In vitro tube dilution test (MIC), Streptococcus pyogenes C203; assay type: cell-based; conditions: 18-20 hours at 37° C.
Experimental: as §1, §2, §3

[4] = tested on: Staphylococcus aureus (Smith); test: In vitro tube dilution test (MIC), Staphylococcus aureus (Smith); assay type: cell-based; conditions: 18-20 hours at 37° C.
Experimental: as §1, §2, §3

ten screening organisms = test: In vitro antibacterial tests against ten screening organisms (overall); assay type: cell-based; conditions: in words
Experimental: as §1, §2, §3

Escherichia coli (Vogel) [5] = test: Mouse protection test, systemic Escherichia coli (Vogel) infection in mice; assay type: in vivo, Swiss Webster, female; conditions: for ED50 (the dose protecting 50% of the mice) / ED50: dosed 30 minutes after infection, 7 days; for ED50 (the dose protecting 50% of the mice): 10080 min; for ED50: Escherichia coli, 168 h, read-out: ED50 (the dose protecting 50% of the mice)
Experimental: as §1
The parent nalidixic acid was solublized by adding 1.0 ml. of 1 N NaOH to the crystalline acid and water was added to a concentration of 1000 mcg./ml. for the in vitro study or saline to a concentration of 2.5 or 5.0 mg./ml. for the in vivo study. A stock solution of nalidixic acid 1,2-ethanediamine (1:1) salt was prepared from the 1:2 salt according to Example 5 above (refer to Solution 5B); in saline this solution has a concentration equivalent of the nalidixic acid of 47.6 mg./ml. for in vivo studies. A concentration equivalent of the acid of 1000 mcg./ml. for the in vitro studies was obtained by dilution of the stock solution.
Culture for In Vivo Study Escherichia coii (Vogel)
Mice White, Swiss Webster, female, […].
The E. coli culture was grown in Brain Heart Infusion broth at 37° C. for sixteen hours after which 0.1 ml. was removed and inoculated into 10 ml. of Brain Heart Infusion broth and incubated for five hours. […] All mice to be infected were inoculated intraperitoneally with 0.5 ml. of the inoculum.
After inoculation of the organism, the mice were divided into groups of ten. Medication was given to one group of mice at each dose level of each of the […] drugs by each of the three routes of administration. Two groups (twenty mice) were used as infection controls. The drugs were administered thirty minutes after the mice were infected. The dose of drug for i.v. injection was contained in 0.2 ml. Those for oral or subcutaneous administration were contained in 0.5 ml. The mice were examined and deaths were recorded for seven days after inoculation. The ED50 's (the dose protecting 50% of the mice) were calculated using a modified Reed and Muench method.

Candida albicans 10231 = test: In vitro tube dilution test (MIC), Candida albicans 10231; assay type: cell-based
Experimental: as §1, §2, §3

Proteus vulgaris 9920 = test: In vitro tube dilution test (MIC), Proteus vulgaris 9920; assay type: cell-based; conditions: 18-20 hours at 37° C.
Experimental: as §1, §2, §3

[6] = tested on: Trichophyton mentagrophytes 9129; test: In vitro tube dilution test (MIC), Trichophyton mentagrophytes 9129; assay type: cell-based; conditions: 120 h, molds read after five days at 25° C., read-out: Minimal Inhibitory Concentration
Experimental: as §1, §2, §3

Escherichia coli (Vogel) [7] = test: In vitro tube dilution test (MIC), Escherichia coli (Vogel); assay type: cell-based; conditions: 18-20 hours at 37° C., read-out: Minimal Inhibitory Concentration
Experimental: as §1, §2, §3

Aspergillus niger 16404 = test: In vitro tube dilution test (MIC), Aspergillus niger 16404; assay type: cell-based; conditions: 120 h, molds read after five days at 25° C., read-out: Minimal Inhibitory Concentration
Experimental: as §1, §2, §3

[8] = read-out: Minimal Inhibitory Concentration

In the case of `CCn1cc(C(=O)O)c(=O)c2ccc(C)nc21` [1,2-ED Salt, 1,2-ethanediamine (1:1) salt of nalidixic acid], the “Minimal Inhibitory Concentration” value ([1]; Pseudomonas aeruginosa MGH-2) is reported as 62.5 µg/mL, the “Minimal Inhibitory Concentration” value [2] is reported as 31.3 µg/mL and the “Minimal Inhibitory Concentration” value (Proteus mirabilis MGH-1; 18-20 hours at 37° C.) is reported as 15.6 µg/mL. For the same compound, the “Minimal Inhibitory Concentration” value [3] was 250 µg/mL, the “Minimal Inhibitory Concentration” value [4] was 31.3 µg/mL and the “antibacterial activity in standard in vitro tests vs. parent nalidixic acid” value (ten screening organisms) was “as active antibacterially as the corresponding parent nalidixic acid”. The “in vitro MIC's compared with MIC's of nalidixic acid” value (ten screening organisms; nine of the ten microorganisms) was “identical to the MIC's of nalidixic acid against nine of the ten microorganisms examined”, the “ED50 (the dose protecting 50% of the mice)” value (Escherichia coli (Vogel) [5]; Oral) was 18.9 mg./kg./dose and the “ED50 (the dose protecting 50% of the mice)” value (Escherichia coli (Vogel) [5]; Subcutaneous) was 17.6 mg./kg./dose. The “ED50 's compared with nalidixic acid in the mouse protection test” value (Escherichia coli (Vogel) [5]; in words) was “no significant differences”, the “antibacterial activity against in vivo bacterial infections in mice vs. parent nalidixic acid” value (Escherichia coli (Vogel) [5]; in words) was “as active antibacterially as the corresponding parent nalidixic acid” and the “Minimal Inhibitory Concentration” value (Candida albicans 10231) was 500 µg/mL. For the same compound, the “Minimal Inhibitory Concentration” value (Proteus vulgaris 9920) was 1.0 µg/mL.

`CCn1cc(C(=O)O)c(=O)c2ccc(C)nc21` [nalidixic acid, 1-ethyl-1,4-dihydro-7-methyl-4-oxo-1,8-naphthyridine-3-carboxylic acid] showed an MIC ([1]; Pseudomonas aeruginosa, MGH2, Pseudomonas aeruginosa MGH-2, read-out: Minimal Inhibitory Concentration) of 125 mg/L (≈ 538 µM), an MIC [2, 8] of 31.3 mg/L (≈ 135 µM) and an MIC (Proteus mirabilis MGH-1; MGH1, 18-20 hours at 37° C., read-out: Minimal Inhibitory Concentration) of 15.6 mg/L (≈ 67.2 µM). It also gave an MIC [3, 8] of 250 mg/L (≈ 1080 µM), an MIC [4, 8] of 31.3 mg/L (≈ 135 µM) and an MIC [6] of 500 mg/L (≈ 2150 µM). For the same compound, the ED50 (Escherichia coli (Vogel) [5]; iv, Intravenous) was 17.6 mg/kg, the ED50 (Escherichia coli (Vogel) [5]; po, Oral) was 16.5 mg/kg and the ED50 (Escherichia coli (Vogel) [5]; sc, Subcutaneous) was 14 mg/kg. It also gave an MIC (Escherichia coli (Vogel) [7]) of 3.9 mg/L (≈ 16.8 µM), an MIC (Aspergillus niger 16404) of 500 mg/L (≈ 2150 µM) and an MIC (Candida albicans 10231; [8]) of 500 mg/L (≈ 2150 µM). It also gave an MIC (Proteus vulgaris 9920; [8]) of 1 mg/L (≈ 4.31 µM).
